Data published in patent US9062043B2, “Fused tricyclic compounds as serine-threonine protein kinase and PARP modulators” (SENHWA BIOSCIENCES, INC., priority 2006, dated 2015).
pIC50: −log10 of the molar value.

Columns and labels:
LNCaP = assay: Cell proliferation assay, Alamar Blue, LNCaP; assay type: cell-based; conditions: Homo sapiens; LNCaP cells, anti-proliferative
Experimental: (§1) A representative cell-proliferation assay protocol using Alamar Blue dye (stored at 4° C., use 20 ul per well) is described hereafter.
(§2) c. Plate 4,000-5,000 cells per well in 100 μl of medium and seed into a 96-well plate according to the following plate layout. Add cell culture medium only to wells B10 to B12. Wells B1 to B9 have cells but no compound added.
(§3) d. Add 100 μl of 2× drug dilution to each well in a concentration shown in the plate layout above. At the same time, add 100 μl of media into the control wells (wells B10 to B12). Total volume is 200 μl/well.
(§4) e. Incubate four (4) days at 37° C., 5% CO2 in a humidified incubator.
(§5) f. Add 20 μl Alamar Blue reagent to each well.
(§6) g. Incubate for four (4) hours at 37° C., 5% CO2 in a humidified incubator.
(§7) h. Record fluorescence at an excitation wavelength of 544 nm and emission wavelength of 590 nm using a microplate reader.
(§8) In the assays, cells are cultured with a test compound for approximately four days, the dye then is added to the cells and fluorescence of […] dye is detected after approximately four hours. Different types of cells can be utilized in the assays (e.g., HCT-116 human colorectal carcinoma cells, PC-3 human prostatic cancer cells and MiaPaca human pancreatic carcinoma cells). Anti-proliferative effects of representative compounds are provided hereafter.

MDAMB231 = assay: Cell proliferation assay, Alamar Blue, MDAMB231; assay type: cell-based; conditions: Homo sapiens, MDA-MB-231; MDAMB231 cells, anti-proliferative
Experimental: as §1, §2, §3, §4, §5, §6, §7, §8

PanC1 = assay: Cell proliferation assay, Alamar Blue, PanC1; assay type: cell-based; conditions: Homo sapiens, PANC-1; PanC1 cells, anti-proliferative; read-out: IC50 (uM) PanC1
Experimental: as §1, §2, §3, §4, §5, §6, §7, §8

MCF-7 = assay: Cell proliferation assay, Alamar Blue, MCF-7; assay type: cell-based; conditions: Homo sapiens, MCF7; MCF-7 cells, anti-proliferative
Experimental: as §1, §2, §3, §4, §5, §6, §7, §8

H460 = assay: Cell proliferation assay, Alamar Blue, H460; assay type: cell-based; conditions: Homo sapiens, NCI-H460; H460 cells, anti-proliferative
Experimental: as §1, §2, §3, §4, §5, §6, §7, §8

COLO 205 = assay: Cell proliferation assay, Alamar Blue, COLO 205; assay type: cell-based; conditions: Homo sapiens; COLO 205 cells, anti-proliferative
Experimental: as §1, §2, §3, §4, §5, §6, §7, §8

Raji = assay: Cell proliferation assay, Alamar Blue, Raji; assay type: cell-based; conditions: Homo sapiens; Raji cells, anti-proliferative
Experimental: as §1, §2, §3, §4, §5, §6, §7, §8

HL-60 = assay: Cell proliferation assay, Alamar Blue, HL-60; assay type: cell-based; conditions: Homo sapiens; HL-60 cells, anti-proliferative
Experimental: as §1, §2, §3, §4, §5, §6, §7, §8

SK-OV-3 = assay: Cell proliferation assay, Alamar Blue, SK-OV-3; assay type: cell-based; conditions: Homo sapiens; SK-OV-3 cells, anti-proliferative
Experimental: as §1, §2, §3, §4, §5, §6, §7, §8

A375 = assay: Cell proliferation assay, Alamar Blue, A375; assay type: cell-based; conditions: Homo sapiens, A-375; A375 cells, anti-proliferative
Experimental: as §1, §2, §3, §4, §5, §6, §7, §8

A549 = assay: Cell proliferation assay, Alamar Blue, A549; assay type: cell-based; conditions: Homo sapiens, Table 16
Experimental: as §2, §3, §4, §5, §6, §7, §8

[1] = system: HCT-116 human colorectal carcinoma cells; assay: Cell proliferation assay, Alamar Blue, HCT-116; assay type: cell-based; conditions: HCT-116, Table 16, second HCT-116 column;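 further: cells exposed to compound for about 4 days, then Alamar Blue added and fluorescence read after about 4 h, medium-only wells as control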
Hs578T = assay: Cell proliferation assay, Alamar Blue, Hs578T; assay type: cell-based; conditions: Homo sapiens, Hs-578T; Table 16
H1299 = assay: Cell proliferation assay, Alamar Blue, H1299; assay type: cell-based; conditions: Homo sapiens, NCI-H1299; Table 16
Experimental: as §2, §3, §4, §5, §6, §7, §8

HT29 = assay: Cell proliferation assay, Alamar Blue, HT29; assay type: cell-based; conditions: Homo sapiens, HT-29; Table 16
Experimental: as §2, §3, §4, §5, §6, §7, §8

[2] = system: MiaPaca human pancreatic carcinoma cells; assay: Cell proliferation assay, Alamar Blue, MiaPaca; assay type: cell-based; conditions: MIA PaCa-2, Table 16
Experimental: as §1, §2, §3, §4, §5, §6, §7, §8

[3] = system: PC-3 human prostatic cancer cells; assay: Cell proliferation assay, Alamar Blue, PC-3; assay type: cell-based; conditions: Table 16, read-out: IC50 PC3
Experimental: as §1, §2, §3, §4, §5, §6, §7, §8

BxPC3 = assay: Cell proliferation assay, Alamar Blue, BxPC3; assay type: cell-based; conditions: Homo sapiens, BXPC-3; Table 16
Experimental: as §2, §3, §4, §5, §6, §7, §8

Jurkat = assay: Cell proliferation assay, Alamar Blue, Jurkat; assay type: cell-based; conditions: Homo sapiens, Table 16;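 further: cells exposed to compound for about 4 days at 37 °C, then Alamar Blue added and fluorescence read after about 4 h, controls given medium without drug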
PC-3 xenografts = assay: Tumor suppression in PC-3 xenograft animals; assay type: in vivo, mice; conditions: oral 150 mg/kg
Experimental: (§9) Animals were handled under laminar-flow hoods.
(§10) Gemar™ administered at a dose of 80 mg/kg IP Q3D was used as a positive control.

[4] = Pharmacokinetics in ICR mice after IV and PO dose; assay type: in vivo
caspase-3 = assay: Caspase-3 staining in tumors as biomarker; assay type: in vivo, mice; conditions: 60 mg/kg IV
Experimental: Caspase staining also was assessed as a biomarker for compound A1 treatment of tumors.

MCF-7 xenografts = assay: Tumor suppression in MCF-7 xenograft animals; assay type: in vivo, mice; conditions: oral 100 mg/kg
Experimental: as §9, §10

MiaPaca xenografts = assay: Tumor suppression in MiaPaca xenograft mice; assay type: in vivo

Row | Structure (SMILES) | pIC50 (A549) | pIC50 [1] | pIC50 (Hs578T) | pIC50 (H1299) | pIC50 (HT29) | pIC50 [2] | pIC50 [3] | pIC50 (Jurkat) | other results
1 | O=C(O)c1ccc2c(c1)nc(Nc1cc(Cl)cc(Cl)c1)c1ccsc12 [drawing 991] | – | – | – | – | – | – | – | – | IC50 (LNCaP): 6.23 µM; IC50 (MDAMB231): 3.89 µM; IC50 (PanC1): 20.3 µM; IC50 (MCF-7): 13.7 µM; IC50 (H460): 12.3 µM; IC50 (COLO 205): 1.01 µM; IC50 (Raji): 17.7 µM; IC50 (HL-60): 1.94 µM; IC50 (SK-OV-3): 11.7 µM; IC50 (A375): 19.9 µM
2 | NS(=O)(=O)c1cccc(Nc2nc3cc(C(=O)O)ccc3c3sccc23)c1 | 5.12 | < 5.00 | 4.96 | 5.00 | 5.34 | < 5.00 | 4.35 | – | –
3 | O=C(O)c1ccc2c(c1)nc(Nc1cc(Cl)cc(Cl)c1)c1ccsc12 [drawing 984] | 4.88 | 5.06 | 5.12 | 6.01 | 4.89 | 4.84 | 4.49 | 5.37 | pIC50 (BxPC3): 5.68
4 | O=C(O)c1ccc2c(c1)nc(Nc1cccc(Cl)c1)c1ccncc12 [compound A1] | – | – | – | – | – | – | – | – | Tumor growth inhibition (PC-3 xenografts): significantly inhibited tumor growth; CLs ([4]; IV 5 mg/kg): 25 mL/min/kg; Cp0-exp ([4]; IV 5 mg/kg): 13201 ng/mL; Kel ([4]; IV 5 mg/kg): 0.1586 h⁻¹; F(0-8 h) ([4]; PO 25 mg/kg): 10.9%; F(0-inf h) ([4]; PO 25 mg/kg): 18.7%; Kel ([4]; PO 25 mg/kg): 0.1076 h⁻¹; AUC(0-inf) ([4]; mouse, plasma, IV 5 mg/kg): 3360 ng·h/mL; AUC(0-t) ([4]; mouse, plasma, IV 5 mg/kg): 3340 ng·h/mL; Vd ([4]; mouse, plasma, IV 5 mg/kg): 9.4 L/kg; AUC(0-inf) ([4]; mouse, plasma, PO 25 mg/kg): 3150 ng·h/mL; AUC(0-t) ([4]; mouse, plasma, PO 25 mg/kg): 2920 ng·h/mL; Cmax ([4]; mouse, plasma, PO 25 mg/kg): 343 ng/mL; Tmax ([4]; mouse, plasma, PO 25 mg/kg): 15 min; Caspase-3 cell staining levels vs untreated control cells (caspase-3): four-fold greater; Tumor growth inhibition (MCF-7 xenografts): significantly inhibited tumor growth; Tumor growth inhibition (MiaPaca xenografts; MiaPaca xenograft, oral 100 mg/kg QDx8 then 200 mg/kg QDx5, relative to untreated control): significantly inhibited tumor growth
5 | O=C(O)c1ccc2c(c1)nc(Nc1cccc(C(F)(F)F)c1)c1nc(NC3CC3)ncc12 [compound A3] | – | – | – | – | – | – | – | – | Tumor progression inhibition (MiaPaca xenografts; MiaPaca xenografts, IV administration): significantly inhibited tumor progression
6 | O=C(O)c1ccc2c(c1)nc(Nc1cccc(F)c1)c1ncsc12 | < 4.30 | 4.82 | < 4.30 | 4.66 | < 4.30 | < 5.00 | < 4.30 | 4.40 | –
7 | O=C(O)c1ccc2c(c1)nc(Nc1cc(Cl)ccc1F)c1ccsc12 | 4.51 | < 5.00 | – | 4.76 | < 4.30 | < 5.00 | < 4.30 | – | –
8 | O=C(NC1CC1)c1cccc(Nc2nc3cc(-c4nnn[nH]4)ccc3c3sccc23)c1 | 5.35 | < 5.00 | 5.11 | 4.90 | 5.49 | 5.50 | 5.27 | 5.16 | –
9 | O=C(O)c1ccc2c(c1)nc(Nc1cc(F)cc(F)c1)c1ccsc12 | 5.13 | < 5.00 | 5.14 | 5.09 | 5.70 | 5.20 | 5.21 | 5.23 | –
10 | O=C(O)c1ccc2c(c1)nc(Nc1cccc(Cl)c1)c1ccsc12 | 4.93 | – | 5.01 | 4.84 | 5.27 | 5.01 | 4.78 | – | –
11 | O=C(O)c1ccc2c(c1)nc(Nc1cccc(F)c1)c1ccsc12 | 5.21 | < 5.00 | 5.06 | 5.06 | 5.72 | 5.14 | 5.58 | 5.23 | –
12 | CNC(=O)c1cccc(Nc2nc3cc(C(=O)O)ccc3c3sccc23)c1 | 5.16 | < 5.00 | 5.04 | 4.86 | 5.45 | < 5.00 | 4.57 | 5.06 | –
13 | COc1cccc(Nc2nc3cc(C(=O)O)ccc3c3scnc23)c1 | < 4.30 | < 5.00 | < 4.30 | 4.73 | < 4.30 | < 5.00 | < 4.30 | – | –
14 | O=C(O)c1ccc2c(c1)nc(Nc1ccccc1)c1ncsc12 | < 4.30 | < 5.00 | < 4.30 | 4.41 | < 4.30 | < 5.00 | < 4.30 | 5.13 | –
15 | N#Cc1cccc(Nc2nc3cc(C(=O)O)ccc3c3sccc23)c1 | 4.79 | – | 4.91 | 4.72 | 4.78 | < 5.00 | < 4.30 | – | –
16 | O=C(O)c1ccc2c(c1)nc(Nc1ccc(F)c(Cl)c1)c1ncsc12 | < 4.30 | 4.82 | 4.55 | 4.38 | < 4.30 | < 5.00 | < 4.30 | 4.82 | –
17 | C#Cc1cccc(Nc2nc3cc(C(=O)O)ccc3c3sccc23)c1 [drawing 938] | 4.56 | – | 5.00 | 4.77 | 4.64 | < 5.00 | 4.75 | – | –
